According to PubChem BioAssay AID328 (DTP/NCI, 2004):
“And” between values parts separate entries of the source, which are not always exact repeats. Equal values may be shown once. Toxic doses and inconclusive results are not listed.

System: BDF1 mice, P388 leukemia ip, median survival T/C
Test: NCI In Vivo Anticancer Drug Screen. Data for tumor model P388 Leukemia (intraperitoneal) in B6D2F1 (BDF1) mice
Conditions: endpoint: median survival time, higher = longer survival
How it was run: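 T/C = treated-group survival ÷ vehicle-control survival; tumour transplanted into mice before dosing.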

[1] = dose: 12.5 mg/kg/injection, schedule: Q01DX009 (ip), vehicle: saline with Tween-80
[2] = dose: 100.0 mg/kg/injection, schedule: Q01DX001 (ip), vehicle: Klucel (hydroxypropylcellulose) (HPC)
[3] = dose: 200.0 mg/kg/injection, schedule: Q01DX001 (ip), vehicle: Klucel (hydroxypropylcellulose) (HPC)
[4] = dose: 400.0 mg/kg/injection, schedule: Q01DX001 (ip), vehicle: Klucel (hydroxypropylcellulose) (HPC)
[5] = dose: 100.0 mg/kg/injection, schedule: Q04DX003 (ip), vehicle: Klucel (hydroxypropylcellulose) (HPC)
[6] = dose: 200.0 mg/kg/injection, schedule: Q04DX003 (ip), vehicle: Klucel (hydroxypropylcellulose) (HPC)
[7] = dose: 100.0 mg/kg/injection, schedule: Q04DX003 (ip), vehicle: saline with Tween-80
[8] = dose: 200.0 mg/kg/injection, schedule: Q04DX003 (ip), vehicle: saline with Tween-80
[9] = dose: 400.0 mg/kg/injection, schedule: Q04DX003 (ip), vehicle: saline with Tween-80
[10] = dose: 50.0 mg/kg/injection, schedule: Q01DX009 (ip), vehicle: saline with Tween-80
[11] = dose: 100.0 mg/kg/injection, schedule: Q01DX009 (ip), vehicle: saline with Tween-80
[12] = dose: 200.0 mg/kg/injection, schedule: Q01DX009 (ip), vehicle: saline with Tween-80
[13] = dose: 25.0 mg/kg/injection, schedule: Q01DX009 (ip), vehicle: saline with Tween-80
[14] = dose: 12.5 mg/kg/injection, schedule: Q04DX003 (ip), vehicle: saline

For COC(=O)CC1(O)C=CC(=O)C=C1, the T/C (dose: 2.0 mg/kg/injection, schedule: Q01DX009 (ip), vehicle: saline) was 165 % of control, the T/C (dose: 5.0 mg/kg/injection, schedule: Q01DX009 (ip), vehicle: saline) was 114 % of control and the T/C (dose: 10.0 mg/kg/injection, schedule: Q01DX009 (ip), vehicle: saline) was 116 % of control. The T/C (dose: 25.0 mg/kg/injection, schedule: Q01DX009 (ip), vehicle: saline) was 153 % of control.

In the case of CC(C)(C#N)Nc1ccccc1, the T/C (dose: 3.13 mg/kg/injection, schedule: Q01DX009 (ip), vehicle: saline with Tween-80) was 90 % of control and 100 % of control, the T/C (dose: 6.25 mg/kg/injection, schedule: Q01DX009 (ip), vehicle: saline with Tween-80) was 90 % of control and 95 % of control and the T/C [1] was 95 % of control.

In the case of O=NN(CCCl)C(=O)NC1C2CC3CC(C2)CC1C3 (configuration not stated), the T/C (dose: 5.56 mg/kg/injection, schedule: Q01DX009 (ip), vehicle: other) was 207 % of control, the T/C (dose: 8.3 mg/kg/injection, schedule: Q04DX003 (ip), vehicle: other) was 159 % of control and the T/C (dose: 8.33 mg/kg/injection, schedule: Q01DX009 (ip), vehicle: other) was 287 % of control. For the same compound, the T/C (dose: 12.5 mg/kg/injection, schedule: Q01DX009 (ip), vehicle: other) was 281 % of control and 305 % of control, the T/C (dose: 12.5 mg/kg/injection, schedule: Q04DX003 (ip), vehicle: other) was 263 % of control and the T/C (dose: 18.7 mg/kg/injection, schedule: Q01DX009 (ip), vehicle: other) was 188 % of control. For the same compound, the T/C (dose: 18.7 mg/kg/injection, schedule: Q04DX003 (ip), vehicle: other) was 222 % of control, the T/C (dose: 25.0 mg/kg/injection, schedule: Q01DX009 (ip), vehicle: other) was 231 % of control and the T/C (dose: 50.0 mg/kg/injection, schedule: Q01DX009 (ip), vehicle: other) was 100 % of control.

In the case of COC(OC)c1cc(=O)[nH]c(=S)[nH]1, the T/C [2] was 100 % of control, the T/C [3] was 109 % of control and the T/C [4] was 90 % of control.

For COc1ccccc1NC(=O)CSC(N)=O, the T/C (dose: 100.0 mg/kg/injection, schedule: Q01DX009 (ip), vehicle: Klucel (hydroxypropylcellulose) (HPC)) was 110 % of control, the T/C (dose: 200.0 mg/kg/injection, schedule: Q01DX009 (ip), vehicle: Klucel (hydroxypropylcellulose) (HPC)) was 120 % of control and the T/C (dose: 264.0 mg/kg/injection, schedule: Q01DX009 (ip), vehicle: Klucel (hydroxypropylcellulose) (HPC)) was 113 % of control and 120 % of control.

For CCOC(=O)C(C(=O)COC)C(=O)OCC, the T/C (dose: 12.5 mg/kg/injection, schedule: Q04DX003 (ip), vehicle: water) was 100 % of control, the T/C (dose: 25.0 mg/kg/injection, schedule: Q04DX003 (ip), vehicle: water) was 108 % of control and the T/C (dose: 50.0 mg/kg/injection, schedule: Q04DX003 (ip), vehicle: water) was 105 % of control. The T/C (dose: 100.0 mg/kg/injection, schedule: Q04DX003 (ip), vehicle: water) was 115 % of control and the T/C (dose: 200.0 mg/kg/injection, schedule: Q04DX003 (ip), vehicle: water) was 115 % of control.

c1ccc(C2SCSCS2)cc1 was tested, and the T/C [5] was 100 % of control, the T/C [6] was 95 % of control and the T/C (dose: 400.0 mg/kg/injection, schedule: Q04DX003 (ip), vehicle: Klucel (hydroxypropylcellulose) (HPC)) was 95 % of control.

COc1ccccc1NC(N)=O was tested, and the T/C [7] was 105 % of control, the T/C [8] was 105 % of control and the T/C [9] was 100 % of control.

With OCCN1CCN(CC/C=C2\c3ccccc3Sc3ccc(Cl)cc32)CC1 the T/C (dose: 6.25 mg/kg/injection, schedule: Q01DX009 (ip), vehicle: saline) was 114 % of control and the T/C (dose: 12.5 mg/kg/injection, schedule: Q01DX009 (ip), vehicle: saline) was 114 % of control.

For CC(Oc1ccccc1-c1ccccc1)C(=O)N(C)C (configuration not stated), the T/C [1] was 100 % of control, the T/C [10] was 121 % of control and 124 % of control and the T/C [11] was 97 % of control and 105 % of control. For the same compound, the T/C [12] was 112 % of control.

For CCCCNc1nc(N)nc(Nc2ccc(Br)cc2)c1N=O, the T/C [13] was 90 % of control, the T/C [10] was 90 % of control and the T/C [2] was 100 % of control. The T/C [11] was 90 % of control and 91 % of control, the T/C [5] was 120 % of control and the T/C [7] was 86 % of control. The T/C (dose: 132.0 mg/kg/injection, schedule: Q04DX003 (ip), vehicle: Klucel (hydroxypropylcellulose) (HPC)) was 100 % of control and 109 % of control, the T/C [3] was 91 % of control and the T/C [6] was 104 % of control. For the same compound, the T/C [8] was 104 % of control, the T/C (dose: 300.0 mg/kg/injection, schedule: Q04DX003 (ip), vehicle: Klucel (hydroxypropylcellulose) (HPC)) was 90 % of control and 113 % of control and the T/C [4] was 91 % of control. The T/C [9] was 100 % of control.

In the case of CC(CN)OCc1ccccc1 (configuration not stated), the T/C [14] was 100 % of control and the T/C (dose: 50.0 mg/kg/injection, schedule: Q04DX003 (ip), vehicle: saline) was 100 % of control.

For CN=C(c1ccccc1)C1(O)CC2CCC1C2 (configuration not stated), the T/C (dose: 100.0 mg/kg/injection, schedule: Q01DX001 (ip), vehicle: saline with Tween-80) was 100 % of control, the T/C (dose: 200.0 mg/kg/injection, schedule: Q01DX001 (ip), vehicle: saline with Tween-80) was 104 % of control and the T/C (dose: 400.0 mg/kg/injection, schedule: Q01DX001 (ip), vehicle: saline with Tween-80) was 100 % of control.

In the case of CN(C)c1ccc(C(O)(Cc2cccc(C#N)c2)c2ccc(N(C)C)cc2)cc1, the T/C (dose: 100.0 mg/kg/injection, schedule: Q04DX002 (ip), vehicle: saline with Tween-80) was 95 % of control, the T/C (dose: 200.0 mg/kg/injection, schedule: Q04DX002 (ip), vehicle: saline with Tween-80) was 89 % of control and the T/C (dose: 400.0 mg/kg/injection, schedule: Q04DX002 (ip), vehicle: saline with Tween-80) was 98 % of control.

For COC1(C(C)(C)C)C=C(C)/C(=C2\C(=O)Oc3c2cc(C)cc3C(C)(C)C)O1 (configuration not stated), the T/C [10] was 99 % of control, the T/C [11] was 92 % of control and the T/C [12] was 96 % of control.

CC1(C)C/C(=C\c2ccccc2)C(=O)c2ccccc21 was tested, and the T/C (dose: 25.0 mg/kg/injection, schedule: Q01DX009 (ip), vehicle: water) was 106 % of control, the T/C (dose: 50.0 mg/kg/injection, schedule: Q01DX009 (ip), vehicle: water) was 95 % of control and the T/C (dose: 100.0 mg/kg/injection, schedule: Q01DX009 (ip), vehicle: water) was 106 % of control. For the same compound, the T/C (dose: 200.0 mg/kg/injection, schedule: Q01DX009 (ip), vehicle: water) was 88 % of control and the T/C (dose: 400.0 mg/kg/injection, schedule: Q01DX009 (ip), vehicle: water) was 100 % of control.

CCOC(=O)N1CCN(C(=O)OCC)CC1 was tested, and the T/C [10] was 100 % of control, the T/C [11] was 100 % of control and the T/C [7] was 90 % of control. For the same compound, the T/C [12] was 95 % of control.

With CCOC/C(C)=C/Cl the T/C (dose: 50.0 mg/kg/injection, schedule: Q01DX009 (ip), vehicle: acetone) was 104 % of control, the T/C (dose: 100.0 mg/kg/injection, schedule: Q01DX009 (ip), vehicle: acetone) was 116 % of control and the T/C (dose: 200.0 mg/kg/injection, schedule: Q01DX009 (ip), vehicle: acetone) was 112 % of control.

With CC(C)(CO)Nc1ccccc1 the T/C (dose: 100.0 mg/kg/injection, schedule: Q04DX003 (ip), vehicle: saline) was 110 % of control, the T/C (dose: 200.0 mg/kg/injection, schedule: Q04DX003 (ip), vehicle: saline) was 100 % of control and the T/C (dose: 400.0 mg/kg/injection, schedule: Q04DX003 (ip), vehicle: saline) was 100 % of control.

With CN1C=c2c3c(ccc2=C2C=CC4C=C5OCOC5=CC4=C21)OCO3 (configuration not stated) the T/C (dose: 5.0 mg/kg/injection, schedule: Q01DX010 (ip), vehicle: saline) was 110 % of control, the T/C (dose: 6.25 mg/kg/injection, schedule: Q04DX003 (ip), vehicle: saline) was 100 % of control and the T/C (dose: 10.0 mg/kg/injection, schedule: Q01DX010 (ip), vehicle: saline) was 100 % of control. The T/C [14] was 100 % of control, the T/C (dose: 20.0 mg/kg/injection, schedule: Q01DX010 (ip), vehicle: saline) was 105 % of control and the T/C (dose: 25.0 mg/kg/injection, schedule: Q04DX003 (ip), vehicle: saline) was 109 % of control.

CS(=O)(=O)OCCCCOS(C)(=O)=O was tested, and the T/C (dose: 6.25 mg/kg/injection, schedule: Q01DX010 (ip), vehicle: saline) was 100 % of control and 119 % of control, the T/C [1] was 113 % of control and the T/C (dose: 12.5 mg/kg/injection, schedule: Q01DX010 (ip), vehicle: saline) was 122 % of control. The T/C (dose: 20.0 mg/kg/injection, schedule: Q01DX010 (ip), vehicle: other) was 120 % of control, the T/C [13] was 104 % of control and the T/C (dose: 40.0 mg/kg/injection, schedule: Q01DX010 (ip), vehicle: other) was 120 % of control. The T/C [10] was 104 % of control and the T/C (dose: 60.0 mg/kg/injection, schedule: Q01DX010 (ip), vehicle: other) was 120 % of control.
